Data reported in patent US20100287638A1, “NEURAL TUMOR STEM CELLS AND METHODS OF USE THEREOF” (The Hospital for Sick Children, priority 2007, published 2010).
Entries after “also recorded” stand apart in the source; their conditions may differ. Like-named read-outs stand apart in the source and are kept apart here.

Legend:
[1] = tested on: GNS cell lines G144, G166, and G179; assay type: cell-based; details: 10 μM, two days
fetal NS cells = experiment: Validation with compounds from an independent supplier, fetal NS cells; assay type: cell-based, human; details: 10 μM, 2 days
Experimental: (§1) Here, selected compounds from an independent source were applied (2 μM for Tegaserod, 10 μM for all others) to G179 (left), HS 27 (middle) or fetal NS (right).
(§2) We carried out two fully independent screens using G144, G166, and G179, as well as a human fibroblast cell line (HS27). […] We chose Glioma NS cell lines to validate several of the drugs, from each class, using compounds obtained from an independent supplier (FIG. 18D).
(§3) For the drug screen we used the IncucyteHD system (Essen Instruments, USA), which enables simultaneously monitoring of six 96-well microplates. GNS cell lines were plated at 10-20% confluence on 96 well plates (Iwaki) coated with laminin (10 μg/ml for 3 hours). The NCC NIH Chemical Compounds library (http://www.nihclinicalcollection.com/) was added to the plates at a final concentration of 10 μM per compound per well (DMSO 0.1%). Images were captured before and after the addition of the library every half hour for 2.5 days in an automated manner using the Incucyte HD device (Essen Instruments, USA). Relative increase in cell number values were generated for every well using confluence readings obtained at each time-point relative to the starting confluence. For every cell line (G144, G166, G179, and HS27) two independent screens were run. HS27 is a human foreskin fibroblast line (American Type Culture Collection). […] Every well associated with a reduction in cell number within the 5* percentile in at least 3 independent screens was visually inspected.

fibroblast cells (HS27) = experiment: Validation with compounds from an independent supplier, fibroblasts; assay type: cell-based, human; details: 10 μM, 2 days
Experimental: as §1, §2, §3

tumor lines (GNS cells) = experiment: Validation with compounds from an independent supplier, tumor lines; assay type: cell-based, human; details: 10 μM, 2 days
Experimental: as §1, §2, §3

GNS cells [2] = experiment: TUNEL and caspase staining of treated cells; assay type: cell-based, human; details: treated versus untreated cells
Excerpt: FIG. 18E is a set of photomicrographs of cells either untreated or treated with indatraline and stained for TUNEL and caspase.

[3] = tested on: human fibroblast cell line (HS27); experiment: Live-cell imaging (IncucyteHD) chemical screen on fibroblast line; assay type: cell-based; details: 10 μM, two days
Experimental: as §2, §3

GNS cells [4] = experiment: GNS cell expansion culture; assay type: cell-based, human
Experimental: GNS cell expansion was carried out as described previously for human foetal NS cells (Sun et al., (2008) Mol Cell Neurosci 38, 245-258). Tissue culture flasks were pre-treated with Laminin, 10 μg/ml in PBS, (Sigma), for at least 3 hrs at 37° C. […] GNS cells were routinely grown to confluence, dissociated using Accutase (Sigma), and then split 1:3 to 1:5. Media was replaced with fresh media every 3-5 days. For all routine analysis we typically worked with cells between passage 10 and 20. For freezing, we re-suspended cell pellets in 0.5 ml of 10% DMSO/Media and placed in a −80° C. freezer. For long-term storage, liquid nitrogen was used. […] Fetal NS cells CB541 and CB660 are described by Sun et al., 2008, supra), while hf240, hf286, and hf289 (used in the microarrays) were isolated using similar techniques.

G166 cells = experiment: Astrocyte differentiation on BMP-4 exposure, G166; assay type: cell-based, human; details: BMP-4 treatment
Experimental: (§4) To determine whether GNS cells could respond to inductive signals and generate astrocytes, we exposed cells to BMP-4 or serum. […] This response is similar to that of human fetal NS cells (Sun et al., (2008) Mol Cell Neurosci 38, 245-258). Similar results were seen using serum treatment. […] Thus, while GNS cells retain a capacity to differentiate, the efficiency and lineage choice vary dramatically between each line.
(§5) All differentiation was carried out on laminin-coated plastic, either in 4-well plates (˜0.5-1×10^5 cells/well) (Nunc), or for time-lapse movies using 24-well Imagelock microplates (Essen Instruments). For oligodendrocytes and neuronal differentiation we used the same basal media but lacking EGF or FGF-2 (i.e., growth factor withdrawal). For astrocyte differentiation, we supplemented basal media with either BMP at 10 ng/ml (R and D systems), or 1% serum (Sigma). In each case, cells were washed twice with PBS or minimal media before adding the final differentiation media. Samples were processed for immunocytochemistry, typically 7-10 days later.
(§6) Cells w ere fixed in 4% PFA for 10 min and then washed with PBS+0.1% TritonX-100 (PBST). Blocking was carried out using 1% goat serum for 30 mins. […] Images were acquired using a Leica DMI400B inverted fluorescence microscope linked to a DFC340FX camera.

G144 cells = experiment: Astrocyte differentiation on BMP-4 exposure, G144; assay type: cell-based, human; details: BMP-4 10 ng/ml, 7 days
Experimental: as §4, §5, §6

G179 cells = experiment: Astrocyte differentiation on BMP-4 exposure, G179; assay type: cell-based, human; details: BMP-4 10 ng/ml, 7 days
Experimental: as §4, §5, §6

Molecule | killing of / effect on all GNS cell lines [1] | cell death in fetal NS cells (fetal NS cells) | effect on fibroblast cells (fibroblast cells (HS27)) | cell death in tumor lines (tumor lines (GNS cells)) | further results
c1ccc2c(c1)Nc1ccccc1S2 [10H-phenothiazine] | killed all GNS cell lines |  |  |  | 
CN1CCN(c2nc3cc(C(F)(F)F)ccc3n3cccc23)CC1.O=C(O)/C=C\C(=O)O.O=C(O)/C=C\C(=O)O [CGS 12066B] | killed all GNS cell lines |  |  |  | 
C[C@@H]1CN(CCCn2c3ccccc3c3ccccc32)C[C@H](C)N1 [Rimcazole] | killed all GNS cell lines | cell death | less striking or no effect | cell death | 
CN1CCN(CCCN2c3ccccc3Sc3ccc(C(F)(F)F)cc32)CC1 [Trifluoperazine] | killed all GNS cell lines |  |  |  | 
CNC1CC(c2ccc(Cl)c(Cl)c2)c2ccccc21 (stereo not drawn) [indatraline] | killed all GNS cell lines | cell death | less striking or no effect | cell death | apoptotic cell death (TUNEL and caspase staining) (GNS cells [2]): dying by an apoptotic pathway; also recorded: increase in TUNEL and caspase staining; effect on fibroblasts [3]: no effect; killing of / effect on all GNS cell lines ([1]; listed as Indatraline): affected all GNS cells
Fc1ccc([C@@H]2CCNC[C@H]2COc2ccc3c(c2)OCO3)cc1 [paroxetine] | killed all GNS cell lines |  |  |  | effect on fibroblasts [3]: no effect; killing of / effect on all GNS cell lines ([1]; listed as Paroxetine): affected all GNS cells
CN[C@H]1CC[C@@H](c2ccc(Cl)c(Cl)c2)c2ccccc21 [sertraline] |  | cell death | less striking or no effect | cell death | 
[H]/N=C(/NCCCCC)N/N=C/c1c[nH]c2ccc(OC)cc12 [tegaserod] | killed all GNS cell lines |  |  |  | 
LIF: the cytokine LIF (leukemia inhibitory factor) |  |  |  |  | effect on the cells in expansion culture (GNS cells [4]): no apparent effect
BMP-4: inductive signal added to basal media for astrocyte differentiation (R and D systems) (protein, UniProt P12644 293-408, looked up) Bone morphogenetic protein 4: SPKHHSQRARKKNKNCRRHSLYVDFSDVGWNDWIVAPPGYQAFYCHGDCPFPLADHLNSTNHAIVQTLVNSVNSSIPKACCVPTELSAISMLYLDEYDKVVLKNYQEMVVEGCGCR |  |  |  |  | differentiation into GFAP+ cells (G166 cells): did differentiate; differentiation into GFAP+ cells (G166 cells; listed as BMP): could only be observed at low frequency; differentiation into GFAP+ cells (G144 cells): majority of cells express high levels of GFAP; also recorded: efficiently differentiate into GFAP^+ cells; differentiation into GFAP+ cells (G179 cells): majority of cells express high levels of GFAP; also recorded: efficiently differentiate into GFAP^+ cells; differentiation into GFAP+ cells (G179 cells; listed as BMP): expressed high levels of GFAP
